Ki and EC50 data for 19 compounds are collected here from patent publication US10968236B2, “TYK2 inhibitors and uses thereof” (Nimbus Lakshmi, Inc., priority 2015, dated 2021).

What is called Ki is a measure of affinity in units of concentration, obtained from inhibition or displacement. The term EC50 denotes the concentration at which the effect is half-maximal. Lower therefore signals higher potency in that assay.

One assay addresses JAK2 (Homo sapiens (Human), UniProt O60674). In words: JAK2 activity inhibition assay (radioactive kinase / Caliper assay). It counts as biochemical.
Assay [1] relates to GM-CSF induced pSTAT5 (JAK2-pSTAT5). The assay can be described thus: GM-CSF Induced pSTAT5 in human PBMC. In kind it is cell-based. The settings on record: GM-CSF 5 ng/mL. The procedure: GM-CSF Induced pSTAT5 in human PBMC. Cells are prepared for analysis as in the above procedure and 15 μl of GM-CSF (final concentration 5 ng/mL) is added for 20 minutes prior to pSTAT5 and total STAT5 analysis using cell lysates prepared and analyzed by MSD reagents as per manufacturer protocol. The final DMSO concentration of compound in the assay is 0.1%.
(§1) The compound numbers correspond to the compound numbers in Table 1. Compounds having an activity designated as “A” provided an EC50≤2 μM; compounds having an activity designated as “B” provided a EC50 of 2-20 μM, and compounds having an activity designated as “C” provided an EC50>20 μM.

The target of the next assay is TYK2 (Homo sapiens (Human), UniProt P29597). The assay can be described thus: Tyk2 activity inhibition assay (radioactive kinase / Caliper assay). It counts as biochemical.
Chain of TYK2 (P29597 whole entry): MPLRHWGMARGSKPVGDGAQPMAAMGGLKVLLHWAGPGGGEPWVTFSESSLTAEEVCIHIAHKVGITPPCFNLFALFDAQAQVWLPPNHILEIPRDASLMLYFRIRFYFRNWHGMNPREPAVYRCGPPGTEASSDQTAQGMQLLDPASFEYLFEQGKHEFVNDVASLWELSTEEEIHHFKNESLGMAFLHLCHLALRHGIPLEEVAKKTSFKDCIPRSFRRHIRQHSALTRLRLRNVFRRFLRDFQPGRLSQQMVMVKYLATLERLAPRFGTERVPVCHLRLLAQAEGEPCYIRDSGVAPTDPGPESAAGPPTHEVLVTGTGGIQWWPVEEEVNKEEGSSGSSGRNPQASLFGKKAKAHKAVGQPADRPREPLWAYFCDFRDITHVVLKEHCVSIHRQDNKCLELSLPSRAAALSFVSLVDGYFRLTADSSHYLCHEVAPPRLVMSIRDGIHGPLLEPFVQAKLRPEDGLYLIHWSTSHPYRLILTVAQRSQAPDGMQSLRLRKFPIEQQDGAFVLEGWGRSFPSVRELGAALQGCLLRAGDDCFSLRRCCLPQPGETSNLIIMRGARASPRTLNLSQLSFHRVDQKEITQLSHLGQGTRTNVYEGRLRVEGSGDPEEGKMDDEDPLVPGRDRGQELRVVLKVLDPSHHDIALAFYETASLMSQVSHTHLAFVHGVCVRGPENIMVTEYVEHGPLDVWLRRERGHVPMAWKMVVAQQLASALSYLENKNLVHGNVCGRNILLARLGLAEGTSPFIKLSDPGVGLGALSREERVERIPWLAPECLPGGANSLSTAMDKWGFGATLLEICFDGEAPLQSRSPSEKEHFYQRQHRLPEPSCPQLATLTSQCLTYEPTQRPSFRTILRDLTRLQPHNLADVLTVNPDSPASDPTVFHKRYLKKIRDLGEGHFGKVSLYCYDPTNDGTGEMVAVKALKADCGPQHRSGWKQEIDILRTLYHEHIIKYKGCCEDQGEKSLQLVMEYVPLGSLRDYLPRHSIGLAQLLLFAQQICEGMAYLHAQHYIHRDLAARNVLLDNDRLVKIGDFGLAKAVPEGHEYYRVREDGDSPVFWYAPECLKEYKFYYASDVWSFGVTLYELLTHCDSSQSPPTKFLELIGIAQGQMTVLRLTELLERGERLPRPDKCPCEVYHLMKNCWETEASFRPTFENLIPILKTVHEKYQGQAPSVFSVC
The subject of assay [2] is IL-12 induced pSTAT4 (Tyk2-pSTAT4). In words: IL-12 Induced pSTAT4 in human PBMC. In kind it is cell-based. The following applies: IL-12 1.7 ng/mL. The procedure: IL-12 Induced pSTAT4 in human PBMC. Human PBMC are isolated from buffy coat and are stored frozen for assays as needed. Cells for assay are thawed and resuspended in complete media containing serum, then cells are diluted to 1.67 E6 cells/ml so that 120 μl per well is 200,000 cells. 15 μl of compound or DMSO is added to the well at the desired concentrations and incubated at 1 hr at 37 C. 15 μl of stimulus (final concentration of 1.7 ng/mL IL-12) is added for 30 minutes prior to pSTAT4 and total STAT4 analysis using cell lysates prepared and analyzed by MSD reagents as per manufacturer protocol. The final DMSO concentration of compound in the assay is 0.1%.
as §1

Chain of JAK2 (O60674 whole entry): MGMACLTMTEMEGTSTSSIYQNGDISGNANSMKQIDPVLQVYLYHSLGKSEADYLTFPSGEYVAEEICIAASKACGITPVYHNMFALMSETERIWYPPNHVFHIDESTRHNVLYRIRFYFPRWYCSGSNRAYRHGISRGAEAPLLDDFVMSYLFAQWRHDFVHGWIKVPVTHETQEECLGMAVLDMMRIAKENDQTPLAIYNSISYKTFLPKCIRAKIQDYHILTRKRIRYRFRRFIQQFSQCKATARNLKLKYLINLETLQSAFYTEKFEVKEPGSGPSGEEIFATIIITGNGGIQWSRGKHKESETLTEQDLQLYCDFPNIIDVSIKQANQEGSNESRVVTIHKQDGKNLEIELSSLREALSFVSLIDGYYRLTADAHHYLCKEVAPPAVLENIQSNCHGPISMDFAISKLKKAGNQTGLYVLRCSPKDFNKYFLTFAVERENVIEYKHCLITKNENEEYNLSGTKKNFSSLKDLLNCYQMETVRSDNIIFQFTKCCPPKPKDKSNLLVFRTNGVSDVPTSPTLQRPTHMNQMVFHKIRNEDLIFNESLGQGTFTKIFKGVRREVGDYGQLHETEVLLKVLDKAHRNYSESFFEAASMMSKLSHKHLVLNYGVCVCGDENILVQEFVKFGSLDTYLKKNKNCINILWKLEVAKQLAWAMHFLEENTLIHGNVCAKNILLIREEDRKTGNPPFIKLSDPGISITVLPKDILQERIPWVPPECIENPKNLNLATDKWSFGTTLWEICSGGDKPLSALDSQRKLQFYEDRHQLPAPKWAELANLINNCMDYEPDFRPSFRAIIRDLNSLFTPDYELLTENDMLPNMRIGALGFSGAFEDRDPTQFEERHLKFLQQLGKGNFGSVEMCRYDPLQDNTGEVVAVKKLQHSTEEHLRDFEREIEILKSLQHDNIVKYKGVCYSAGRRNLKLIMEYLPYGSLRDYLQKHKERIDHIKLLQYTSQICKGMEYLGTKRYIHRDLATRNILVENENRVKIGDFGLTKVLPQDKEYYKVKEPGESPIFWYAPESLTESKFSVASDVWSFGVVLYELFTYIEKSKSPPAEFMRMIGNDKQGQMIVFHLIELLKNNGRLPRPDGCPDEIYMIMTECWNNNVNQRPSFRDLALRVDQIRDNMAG

Consider `O=C1NCc2nc(-c3c(F)cccc3F)cc(Nc3ccc(C(=O)N4CCC5(CCOCC5)CC4)cc3)c21` [Compound I-58, 4-((4-(3-oxa-9-azaspiro[5.5]undecane-9-carbonyl)phenyl)amino)-2-(2,6-difluorophenyl)-6,7-dihydro-5H-pyrrolo[3,4-b]pyridin-5-one], for which the Ki at JAK2 and at TYK2 was at most 10 nM each time. Also, the EC50 is 2000 to 20000 nM in assay [1] and at most 2000 nM in assay [2].
For the compound `O=C1NCc2nc(-c3c(F)cccc3F)cc(Nc3ccc4c(n3)NCCCO4)c21` [Compound I-18, 2-(2,6-difluorophenyl)-4-((2,3,4,5-tetrahydropyrido[3,2-b][1,4]oxazepin-7-yl)amino)-6,7-dihydro-5H-pyrrolo[3,4-b]pyridin-5-one], the inhibition constant Ki was 10 to 100 nM on JAK2 and at most 10 nM on TYK2. Also, the concentration for a half-maximal effect (EC50) was 2000 to 20000 nM in assay [1] and at most 2000 nM in assay [2].
Take `CC1(C)CNc2nc(Nc3cc(-c4c(F)cccc4F)nc4c3C(=O)NC4)ccc21` [Compound I-10, 2-(2,6-difluorophenyl)-4-((3,3-dimethyl-2,3-dihydro-1H-pyrrolo[2,3-b]pyridin-6-yl)amino)-6,7-dihydro-5H-pyrrolo[3,4-b]pyridin-5-one]: the Ki is 10 to 100 nM on JAK2 and at most 10 nM at TYK2. The half-maximal effective concentration (EC50) in assay [1] and in assay [2] was at most 2000 nM throughout.
As to `N#Cc1cccc(F)c1-c1cc(Nc2ccc(N3CC[C@@]4(C[C@@H](O)CO4)C3)cn2)c2c(n1)CNC2=O` [Compound I-88, 3-fluoro-2-(4-((5-((3R,5R)-3-hydroxy-1-oxa-7-azaspiro[4.4]nonan-7-yl)pyridin-2-yl)amino)-5-oxo-6,7-dihydro-5H-pyrrolo[3,4-b]pyridin-2-yl)benzonitrile], the Ki at JAK2 and at TYK2 was at most 10 nM in each case. Besides, the 50% effective concentration (EC50) in assay [1] and in assay [2] was at most 2000 nM each time.
Turning to `CC1(C)CNc2cc(Nc3nc(-c4c(F)cccc4F)nc4c3C(=O)NC4)ccc21` [Compound I-2, 2-(2,6-difluorophenyl)-4-((3,3-dimethylindolin-6-yl)amino)-6,7-dihydro-5H-pyrrolo[3,4-d]pyrimidin-5-one], the Ki is 10 to 100 nM on JAK2 and at most 10 nM at TYK2. The EC50 in assay [1] was 2000 to 20000 nM; in assay [2], at most 2000 nM.
Taken in the same sequence, the figures for `O=C1NCc2nc(-c3c(F)cccc3F)cc(Nc3ccc(N4C[C@H]5CC[C@@H](C4)O5)cn3)c21` [Compound I-4, 4-((5-((1R,5S)-8-oxa-3-azabicyclo[3.2.1]octan-3-yl)pyridin-2-yl)amino)-2-(2,6-difluorophenyl)-6,7-dihydro-5H-pyrrolo[3,4-b]pyridin-5-one] were 10 to 100 nM, at most 10 nM, at most 2000 nM and at most 2000 nM.
With `N#Cc1cccc(F)c1-c1cc(Nc2ccc(N3CCC4(C[C@H](O)CO4)C3)cn2)c2c(n1)CNC2=O` (stereo in doubt) [Compound I-93, 3-fluoro-2-(4-((5-((3S,5R)-3-hydroxy-1-oxa-7-azaspiro[4.4]nonan-7-yl)pyridin-2-yl)amino)-5-oxo-6,7-dihydro-5H-pyrrolo[3,4-b]pyridin-2-yl)benzonitrile], the values for the inhibition constant Ki at JAK2 and on TYK2 were 10 to 100 nM and at most 10 nM, respectively. The EC50 in assay [1] is 2000 to 20000 nM; in assay [2], at most 2000 nM.
Taken in the same sequence, the figures for `O=C1NCc2nc(-c3c(F)cccc3F)cc(Nc3ccc(N4CCC5(CC4)OCCO5)cn3)c21` [Compound I-62, 4-((5-(1,4-dioxa-8-azaspiro[4.5]decan-8-yl)pyridin-2-yl)amino)-2-(2,6-difluorophenyl)-6,7-dihydro-5H-pyrrolo[3,4-b]pyridin-5-one] were 10 to 100 nM, at most 10 nM, at most 2000 nM and at most 2000 nM.
Taken in the same sequence, the figures for `O=C1NCc2nc(-c3c(F)cccc3F)cc(Nc3ccc(N4CCOC45COC5)cn3)c21` [Compound I-65, 4-((5-(2,5-dioxa-8-azaspiro[3.4]octan-8-yl)pyridin-2-yl)amino)-2-(2,6-difluorophenyl)-6,7-dihydro-5H-pyrrolo[3,4-b]pyridin-5-one] were at most 10 nM, at most 10 nM, 2000 to 20000 nM and at most 2000 nM.
Taken in the same sequence, the figures for `N#Cc1cccc(F)c1-c1cc(Nc2ccc(N3CCC4(C[C@H](O)CO4)C3)cn2)c2c(n1)CNC2=O` (stereo in doubt) [Compound I-91, 3-fluoro-2-(4-((5-((3S,5S)-3-hydroxy-1-oxa-7-azaspiro[4.4]nonan-7-yl)pyridin-2-yl)amino)-5-oxo-6,7-dihydro-5H-pyrrolo[3,4-b]pyridin-2-yl)benzonitrile] were at most 10 nM, at most 10 nM, at most 2000 nM and at most 2000 nM.
Turning to `N#Cc1cc(F)c(-c2cc(Nc3ccc(N4CCC5(CC4)CC5)cn3)c3c(n2)CNC3=O)c(F)c1` [Compound I-60, 4-(4-((5-(6-azaspiro[2.5]octan-6-yl)pyridin-2-yl)amino)-5-oxo-6,7-dihydro-5H-pyrrolo[3,4-b]pyridin-2-yl)-3,5-difluorobenzonitrile], the Ki is 10 to 100 nM at JAK2 and at most 10 nM at TYK2. For the same compound, the concentration for a half-maximal effect (EC50) in assay [1] was 2000 to 20000 nM; in assay [2], at most 2000 nM.
Taken in the same sequence, the figures for `O=C1NCc2nc(-c3c(F)cccc3F)cc(Nc3ccc(N4CCCC5(CCO5)C4)cn3)c21` (stereo not shown) [Compound I-36, 4-((5-(1-oxa-6-azaspiro[3.5]nonan-6-yl)pyridin-2-yl)amino)-2-(2,6-difluorophenyl)-6,7-dihydro-5H-pyrrolo[3,4-b]pyridin-5-one] were 10 to 100 nM, at most 10 nM, 2000 to 20000 nM and at most 2000 nM.
The like results for `O=C1NCc2nc(-c3c(F)cccc3F)cc(Nc3ccc(N4C[C@H]5COC[C@H]5C4)cn3)c21` [Compound I-59, 2-(2,6-difluorophenyl)-4-((5-((3aR,6aS)-tetrahydro-1H-furo[3,4-c]pyrrol-5(3H)-yl)pyridin-2-yl)amino)-6,7-dihydro-5H-pyrrolo[3,4-b]pyridin-5-one] were, in that order, 10 to 100 nM, at most 10 nM, 2000 to 20000 nM and at most 2000 nM.
In the case of `N#Cc1cccc(F)c1-c1cc(Nc2ccc(N3CCC4(CC(O)CO4)C3)cn2)c2c(n1)CNC2=O` (stereo in doubt) [Compound I-89, 3-fluoro-2-(4-((5-((3S,5R)-3-hydroxy-1-oxa-7-azaspiro[4.4]nonan-7-yl)pyridin-2-yl)amino)-5-oxo-6,7-dihydro-5H-pyrrolo[3,4-b]pyridin-2-yl)benzonitrile], the inhibition constant (Ki) at JAK2 and on TYK2 was at most 10 nM each time. Besides, the concentration for a half-maximal effect (EC50) in assay [1] and in assay [2] was at most 2000 nM throughout.
On to `N#Cc1cccc(F)c1-c1cc(Nc2ccc(N3CCOC4(CC4)C3)nc2)c2c(n1)CNC2=O` [Compound I-79, 2-(4-((6-(4-oxa-7-azaspiro[2.5]octan-7-yl)pyridin-3-yl)amino)-5-oxo-6,7-dihydro-5H-pyrrolo[3,4-b]pyridin-2-yl)-3-fluorobenzonitrile], for which the Ki at JAK2 is 10 to 100 nM; on TYK2, at most 10 nM. The EC50 was 2000 to 20000 nM in assay [1] and at most 2000 nM in assay [2].
As for `O=C1NCc2nc(-c3c(F)cccc3F)cc(Nc3ccc(N4CCC5(CC4)CC5)cn3)c21` [Compound I-20, 4-((5-(6-azaspiro[2.5]octan-6-yl)pyridin-2-yl)amino)-2-(2,6-difluorophenyl)-6,7-dihydro-5H-pyrrolo[3,4-b]pyridin-5-one], the inhibition constant (Ki) on JAK2 is 10 to 100 nM; at TYK2, at most 10 nM. Also, the values for the EC50 in assay [1] and in assay [2] were over 20000 nM and at most 2000 nM, respectively.
With `O=C1NCc2nc(-c3c(F)cccc3F)cc(Nc3cc4c(cn3)CCN4)c21` [Compound I-17, 2-(2,6-difluorophenyl)-4-((2,3-dihydro-1H-pyrrolo[3,2-c]pyridin-6-yl)amino)-6,7-dihydro-5H-pyrrolo[3,4-b]pyridin-5-one], the Ki at JAK2 was 10 to 100 nM; on TYK2 it was at most 10 nM. For the same compound, the values for the EC50 in assay [1] and in assay [2] were 2000 to 20000 nM and at most 2000 nM, respectively.
`CCNC(=O)C(C)(C)c1ccc(Nc2cc(-c3c(F)cccc3F)nc3c2C(=O)NC3)cc1` [Compound I-67, 2-(4-((2-(2,6-difluorophenyl)-5-oxo-6,7-dihydro-5H-pyrrolo[3,4-b]pyridin-4-yl)amino)phenyl)-N-ethyl-2-methylpropanamide]: the inhibitory constant (Ki) on JAK2 and at TYK2 was at most 10 nM in each case. Besides, the EC50 in assay [1] was 2000 to 20000 nM; in assay [2], at most 2000 nM.
Turning to `O=C1NCc2nc(-c3c(F)cccc3F)nc(Nc3ccc4c(c3)NCC4)c21` [Compound I-1, 2-(2,6-difluorophenyl)-4-(indolin-6-ylamino)-6,7-dihydro-5H-pyrrolo[3,4-d]pyrimidin-5-one], the Ki on JAK2 is 100 to 1000 nM; at TYK2 it was at most 10 nM. Further, the values for the EC50 in assay [1] and in assay [2] were 2000 to 20000 nM and at most 2000 nM, respectively.
